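The compound was tested at five concentrations on cells cultured in 96-well plates, with a 48-hour exposure period. TGI: concentration producing complete growth inhibition.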
How the values were obtained:
Experiment in all cases: NCI anticancer screen, dose series, 48 h
HCT-15 colon = tested on: HCT-15 colon
MCF7 breast = tested on: MCF7 breast
RPMI-8226 leukemia = tested on: RPMI-8226 leukemia
786-0 renal = tested on: 786-0 renal
CCRF-CEM leukemia = tested on: CCRF-CEM leukemia
OVCAR-8 ovarian = tested on: OVCAR-8 ovarian
SR leukemia = tested on: SR leukemia
SK-MEL-2 melanoma = tested on: SK-MEL-2 melanoma
SK-MEL-5 melanoma = tested on: SK-MEL-5 melanoma
NCI-H522 lung = tested on: NCI-H522 lung
MALME-3M melanoma = tested on: MALME-3M melanoma
PC-3 prostate = tested on: PC-3 prostate
BT-549 breast = tested on: BT-549 breast
LOX IMVI melanoma = tested on: LOX IMVI melanoma
UACC-257 melanoma = tested on: UACC-257 melanoma
MDA-MB-231 breast = tested on: MDA-MB-231 breast
HCT-116 colon = tested on: HCT-116 colon
NCI/ADR-RES ovarian = tested on: NCI/ADR-RES ovarian
SW-620 colon = tested on: SW-620 colon
HL-60(TB) leukemia = tested on: HL-60(TB) leukemia
SN12C renal = tested on: SN12C renal
IGROV1 ovarian = tested on: IGROV1 ovarian
NCI-H23 lung = tested on: NCI-H23 lung
NCI-H460 lung = tested on: NCI-H460 lung
MOLT-4 leukemia = tested on: MOLT-4 leukemia
COLO 205 colon = tested on: COLO 205 colon
SF-268 CNS = tested on: SF-268 CNS
K-562 leukemia = tested on: K-562 leukemia
TK-10 renal = tested on: TK-10 renal
SF-539 CNS = tested on: SF-539 CNS
A498 renal = tested on: A498 renal
SK-MEL-28 melanoma = tested on: SK-MEL-28 melanoma
HOP-92 NSCLC = tested on: HOP-92 NSCLC
HS 578T breast = tested on: HS 578T breast
ACHN renal = tested on: ACHN renal
MDA-N = tested on: MDA-N
NCI-H226 lung = tested on: NCI-H226 lung
UACC-62 melanoma = tested on: UACC-62 melanoma
HCC-2998 colon = tested on: HCC-2998 colon
U251 CNS = tested on: U251 CNS
M14 melanoma = tested on: M14 melanoma
HOP-62 NSCLC = tested on: HOP-62 NSCLC
UO-31 renal = tested on: UO-31 renal
A549 NSCLC = tested on: A549 NSCLC
KM12 colon = tested on: KM12 colon
SF-295 CNS = tested on: SF-295 CNS
OVCAR-4 ovarian = tested on: OVCAR-4 ovarian
OVCAR-5 ovarian = tested on: OVCAR-5 ovarian
EKVX NSCLC = tested on: EKVX NSCLC
SNB-19 CNS = tested on: SNB-19 CNS
CAKI-1 renal = tested on: CAKI-1 renal
T-47D breast = tested on: T-47D breast
SK-OV-3 ovarian = tested on: SK-OV-3 ovarian
HT29 colon = tested on: HT29 colon
OVCAR-3 ovarian = tested on: OVCAR-3 ovarian
MDA-MB-435 = tested on: MDA-MB-435
RXF 393 renal = tested on: RXF 393 renal

`Nc1c2c(nc3ccccc13)CCCCCC2` showed a TGI (HCT-15 colon) of over 100 µM, a TGI (MCF7 breast) of over 100 µM and a TGI (RPMI-8226 leukemia) of 43.8 µM. For the same molecule, the TGI (786-0 renal) was 30 µM, the TGI (CCRF-CEM leukemia) was 52.4 µM and the TGI (OVCAR-8 ovarian) was over 100 µM. The TGI (SR leukemia) was 38 µM, the TGI (SK-MEL-2 melanoma) was 29.2 µM and the TGI (SK-MEL-5 melanoma) was 31.3 µM. It also gave a TGI (NCI-H522 lung) of 56.3 µM, a TGI (MALME-3M melanoma) of 32.6 µM and a TGI (PC-3 prostate) of over 100 µM. It also gave a TGI (BT-549 breast) of over 100 µM, a TGI (LOX IMVI melanoma) of 31.8 µM and a TGI (UACC-257 melanoma) of 31.1 µM. The TGI (MDA-MB-231 breast) was 42.5 µM, the TGI (HCT-116 colon) was 64.1 µM and the TGI (NCI/ADR-RES ovarian) was over 100 µM. For the same molecule, the TGI (SW-620 colon) was 50.1 µM, the TGI (HL-60(TB) leukemia) was 31.6 µM and the TGI (SN12C renal) was over 100 µM. For the same molecule, the TGI (IGROV1 ovarian) was over 100 µM, the TGI (NCI-H23 lung) was over 100 µM and the TGI (NCI-H460 lung) was 38.9 µM. The TGI (MOLT-4 leukemia) was 85 µM, the TGI (COLO 205 colon) was 30.6 µM and the TGI (SF-268 CNS) was over 100 µM. For the same molecule, the TGI (K-562 leukemia) was 69 µM, the TGI (TK-10 renal) was 35.1 µM and the TGI (SF-539 CNS) was 32.3 µM. For the same molecule, the TGI (A498 renal) was 74 µM, the TGI (SK-MEL-28 melanoma) was 30 µM and the TGI (HOP-92 NSCLC) was 32.1 µM. The TGI (HS 578T breast) was over 100 µM, the TGI (ACHN renal) was 86.3 µM and the TGI (MDA-N) was 30.4 µM. For the same molecule, the TGI (NCI-H226 lung) was over 100 µM, the TGI (UACC-62 melanoma) was 33.7 µM and the TGI (HCC-2998 colon) was 27.4 µM. The TGI (U251 CNS) was 80.2 µM.
With `O=C1C2CC=CCC2C(=O)N1n1c(-c2ccccc2)n[nH]c1=O` (stereo not given) the TGI (HCT-15 colon) was over 100 µM, the TGI (M14 melanoma) was over 100 µM and the TGI (MCF7 breast) was over 100 µM. It also gave a TGI (HOP-62 NSCLC) of over 100 µM, a TGI (RPMI-8226 leukemia) of over 100 µM and a TGI (786-0 renal) of over 100 µM. It also gave a TGI (CCRF-CEM leukemia) of over 100 µM, a TGI (OVCAR-8 ovarian) of over 100 µM and a TGI (UO-31 renal) of over 100 µM. It also gave a TGI (SR leukemia) of over 100 µM, a TGI (SK-MEL-2 melanoma) of over 100 µM and a TGI (SK-MEL-5 melanoma) of over 100 µM. It also gave a TGI (NCI-H522 lung) of over 100 µM, a TGI (MALME-3M melanoma) of over 100 µM and a TGI (PC-3 prostate) of over 100 µM. It also gave a TGI (BT-549 breast) of over 100 µM, a TGI (LOX IMVI melanoma) of over 100 µM and a TGI (UACC-257 melanoma) of over 100 µM. It also gave a TGI (MDA-MB-231 breast) of over 100 µM, a TGI (A549 NSCLC) of over 100 µM and a TGI (HCT-116 colon) of over 100 µM. For the same molecule, the TGI (NCI/ADR-RES ovarian) was over 100 µM, the TGI (KM12 colon) was over 100 µM and the TGI (SF-295 CNS) was over 100 µM. The TGI (SW-620 colon) was over 100 µM, the TGI (OVCAR-4 ovarian) was over 100 µM and the TGI (OVCAR-5 ovarian) was over 100 µM. For the same molecule, the TGI (EKVX NSCLC) was over 100 µM, the TGI (SNB-19 CNS) was over 100 µM and the TGI (SN12C renal) was over 100 µM. It also gave a TGI (CAKI-1 renal) of over 100 µM, a TGI (IGROV1 ovarian) of over 100 µM and a TGI (NCI-H23 lung) of over 100 µM. The TGI (T-47D breast) was over 100 µM, the TGI (NCI-H460 lung) was over 100 µM and the TGI (MOLT-4 leukemia) was over 100 µM. It also gave a TGI (COLO 205 colon) of over 100 µM, a TGI (SF-268 CNS) of over 100 µM and a TGI (K-562 leukemia) of over 100 µM. For the same molecule, the TGI (TK-10 renal) was over 100 µM, the TGI (SF-539 CNS) was over 100 µM and the TGI (SK-OV-3 ovarian) was over 100 µM. It also gave a TGI (A498 renal) of over 100 µM, a TGI (HT29 colon) of over 100 µM and a TGI (OVCAR-3 ovarian) of over 100 µM. It also gave a TGI (MDA-MB-435) of over 100 µM, a TGI (HOP-92 NSCLC) of over 100 µM and a TGI (HS 578T breast) of over 100 µM. The TGI (ACHN renal) was over 100 µM, the TGI (MDA-N) was over 100 µM and the TGI (NCI-H226 lung) was over 100 µM. The TGI (UACC-62 melanoma) was over 100 µM, the TGI (HCC-2998 colon) was over 100 µM and the TGI (RXF 393 renal) was over 100 µM. It also gave a TGI (U251 CNS) of over 100 µM.
